Patent US4758559A, “Pyrrolo[1,2-a] [4,1]benzoxazepine derivatives useful as calmodulin and histamine inhibitors” (Ciba-Geigy Corporation, priority 1986, dated 1988)

Experiments:
[1] = system: diarrhea induced in rats by prostaglandin E2; assay: inhibition of the diarrhea induced in rats by intraperitoneal prostaglandin E2; type: in vivo; details: 10 mg/Kg p.o. in the rat
Protocol: The antidiarrheal effect of the compounds of the invention is determined by measuring the inhibition of the diarrhea induced in rats by the intraperitoneal administration of prostaglandin E2.
The test is carried out as follows:
Female Sprague-Dawley rats weighing 200-250 g and fasted for 18 hours are employed. The test compounds are dissolved in dimethylsulfoxide diluted with water to a 30-50% dimethyl sulfoxide concentration and administered orally by gastric lavage in a volume of 1 ml/Kg. Thirty or sixty minutes later, prostaglandin E2 (150 μg) is administered i.p. in a volume of 0.5 ml of water. The decrease in fecal excretion compared to untreated animals is measured for a period of 30 minutes after administration of prostaglandin E2.

[2] = system: rat stomach parietal cells; assay: inhibition of acid secretion in rat stomach parietal cells (14C-aminopyrine accumulation); type: cell-based; details: histamine (1 mM) and isobutyl methylxanthine (0.1 mM)
Protocol: Inhibition of acid secretion, indicative of antiulcer activity, can be determined in vitro in rat stomach parietal cells as follows:
Approximately 1×10^6 parietal cells (18-22% enriched) are incubated in a balanced salt solution containing glucose, BSA (bovine serum albumin), 0.1 uCi of ^14 C-aminopyrine, histamine (1 mM), isobutyl methylxanthine (0.1 mM) and the compound to be tested under 95% oxygen at 37° C. for a period of 40 minutes. The cells are then washed, ruptured with distilled water and analyzed by scintillation spectrometry. A decrease in the accumulation of ^14 C-aminopyrine in the cells represents an indirect measure of the inhibition of acid secretion.

calmodulin = calmodulin (Bos taurus, UniProt P62157); assay: inhibition of the calmodulin induced activation of bovine c-AMP phosphodiesterase; type: biochemical; details: in vitro; read-out: concentration inhibiting calmodulin-induced activation of phosphodiesterase by 50%
Protocol: The calmodulin inhibitory properties indicative of the antisecretory activity of said new compounds are determined in vitro by measuring the inhibition of the calmodulin induced activation of bovine c-AMP phosphodiesterase, according to the method described by J. A. Norman et al, Mol. Pharmacology 16, 1089 (1979).

IC50 [2]: ~0.3 µM
IC50 (calmodulin): ~3 µM
Compound: CC1(CN2CCC(n3c(=O)[nH]c4ccccc43)CC2)OCc2ccccc2-n2cccc21 (stereo not drawn) [Example 1, 1,3-Dihydro-1-{1-[(4-methyl-4H,6H,-pyrrolo[1,2-a][4,1]-benzoxazepin-4-yl)-methyl]-4-piperidinyl}-2H-benzimidazol-2-one (1:1)maleate]
prostaglandin E2 induced fecal excretion [1]: reduces prostaglandin E2 induced fecal excretion
